Measurements from patent US20200131156A1, “ARYLSULFONYLPYROLECARBOXAMIDE DERIVATIVES AS Kv3 POTASSIUM CHANNEL ACTIVATORS” (H. Lundbeck A/S, priority 2018, published 2020).

How the values were obtained:
hKv3.1b = target: T1, hKv3.1b (Homo sapiens, UniProt P48547); assay: Automated patch clamp (QPatch-16x) on HEK-293 cells stably expressing hKv3.1b; format: cell-based; conditions: for hKv3.1 (Qpatch) ECΔ30% increase: concentration increasing current by 30% at the −10 mV step; for hKv3.1 (Qpatch) ECΔ30% increase / hKv3.1 (Qpatch) ECΔ5 mV: automated patch clamp; for ECdelta5 mV: concentration needed to shift the activation threshold 5 mV; for hKv3.1 (Qpatch) ECΔ5 mV: concentration that shifts activation threshold by 5 mV in hyperpolarized direction; for Threshold Shift: maximum absolute hyperpolarizing shift of activation threshold at tested concentrations 0.37-30 μM
T1 construct: expressed in transfected cells
T1 sequence (P48547 1-585 isoform P48547-2): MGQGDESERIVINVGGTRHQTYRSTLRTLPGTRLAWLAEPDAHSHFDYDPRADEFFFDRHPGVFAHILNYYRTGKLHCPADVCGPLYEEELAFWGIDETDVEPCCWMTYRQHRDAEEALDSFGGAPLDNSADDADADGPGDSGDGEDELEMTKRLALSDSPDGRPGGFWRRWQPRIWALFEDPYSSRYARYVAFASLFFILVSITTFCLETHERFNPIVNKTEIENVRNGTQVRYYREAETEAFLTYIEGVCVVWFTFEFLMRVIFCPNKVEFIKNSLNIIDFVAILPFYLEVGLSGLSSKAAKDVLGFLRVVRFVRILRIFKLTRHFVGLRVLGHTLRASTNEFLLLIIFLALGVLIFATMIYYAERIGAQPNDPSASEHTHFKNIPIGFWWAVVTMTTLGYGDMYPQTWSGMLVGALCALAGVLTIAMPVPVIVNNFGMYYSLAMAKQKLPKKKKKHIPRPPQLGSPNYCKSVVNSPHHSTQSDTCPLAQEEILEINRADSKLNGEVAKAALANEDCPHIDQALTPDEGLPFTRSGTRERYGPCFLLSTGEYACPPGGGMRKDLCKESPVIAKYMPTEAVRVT
Outline: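 Whole-cell automated patch clamp, extracellular pH 7.4, 4 mM Na2ATP intracellular; holding −80 mV, 200 ms steps −70 to +10 mV. Five ascending concentrations (0.37–30 μM) per cell, ~3 min each, 0.33% DMSO vehicle. Activation threshold (5% of vehicle peak at 10 mV) shift fitted sigmoidally; ECdelta5 mV read from curve.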

[1] = Unbound fraction in brain; format: in vitro ADME, rat

| hKv3.1 (Qpatch) ECΔ30% increase (hKv3.1b) [µM] | ECdelta5 mV (hKv3.1b) [nM] | hKv3.1 (Qpatch) ECΔ5 mV (hKv3.1b) [µM] | Threshold Shift (hKv3.1b) [mV] | fraction unbound ([1]; rat PK table footnote) | fraction unbound ([1]; rat table footnote) | Structure (SMILES) |
| --- | --- | --- | --- | --- | --- | --- |
| 1.6 | 1300 | 1.2 | 32 | 0.08 | – | Cc1cnc(CNC(=O)c2ccn(S(=O)(=O)c3ccc(F)cc3C)c2)cn1 [Compound 90, 1-(4-fluoro-2-methylbenzene-1-sulfonyl)-N-[(5-methylpyrazin-2-yl)methyl]-1H-pyrrole-3-carboxamide] |
| 2.9 | 2800 | 2.7 | 17 | – | 0.12 | Cc1ccc(S(=O)(=O)n2ccc(C(=O)NCc3ncco3)c2)cc1 [Compound 86, 1-(4-methylbenzene-1-sulfonyl)-N-[(1,3-oxazol-2-yl)methyl]-1H-pyrrole-3-carboxamide] |
